Laboratory results taken from PubChem BioAssay (NCI).
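Compound exposure: 48 hours, 5 concentrations, 96-well plates. GI50 is the concentration that inhibits growth by half. TGI is the concentration that stops growth completely.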

Assays:
Test in all cases: NCI-60 cell line screen, 48 h
DU-145 prostate = tested on: DU-145 prostate
LOX IMVI melanoma = tested on: LOX IMVI melanoma
MCF7 breast = tested on: MCF7 breast
NCI-H460 lung = tested on: NCI-H460 lung
OVCAR-3 ovarian = tested on: OVCAR-3 ovarian
PC-3 prostate = tested on: PC-3 prostate
TK-10 renal = tested on: TK-10 renal
UACC-62 melanoma = tested on: UACC-62 melanoma
DMS 114 small cell lung = tested on: DMS 114 small cell lung
SNB-78 CNS = tested on: SNB-78 CNS

## Cc1cc(I)cc(CNCCCN2CCSCC2)c1O
DU-145 prostate
  GI50: 20.3 µM
  TGI: 42.7 µM
LOX IMVI melanoma
  GI50: 14.6 µM
  TGI: 28.4 µM
MCF7 breast
  GI50: 15.1 µM
  TGI: 31.6 µM
NCI-H460 lung
  GI50: 14.3 µM
  TGI: 29.5 µM
OVCAR-3 ovarian
  GI50: 14.1 µM
  TGI: 27.7 µM
PC-3 prostate
  GI50: 17.7 µM
  TGI: 36.3 µM
TK-10 renal
  GI50: 14.2 µM
  TGI: 29.3 µM
UACC-62 melanoma
  GI50: 12.7 µM
  TGI: 30.9 µM

## CN(C)CCNc1cc(-c2ccccc2)nc2ccccc12
DU-145 prostate
  GI50: 5.04 µM
  TGI: 22.2 µM
LOX IMVI melanoma
  GI50: 3.6 µM
  TGI: 14.4 µM
MCF7 breast
  GI50: 3.68 µM
  TGI: 19.7 µM
NCI-H460 lung
  GI50: 3.5 µM
  TGI: 12.8 µM
OVCAR-3 ovarian
  GI50: 8.9 µM
  TGI: 33.1 µM
PC-3 prostate
  GI50: 4.61 µM
  TGI: 24.9 µM
TK-10 renal
  GI50: 6.94 µM
  TGI: 38.8 µM
UACC-62 melanoma
  GI50: 13.7 µM
  TGI: 30 µM

## COC(=O)C(=O)C(C(=O)C=C(C)C)C(=O)C(=O)Nc1cc(C(F)(F)F)ccc1Cl (centres undefined)
DMS 114 small cell lung
  TGI: > 100 µM
LOX IMVI melanoma
  TGI: > 100 µM
NCI-H460 lung
  TGI: > 100 µM
OVCAR-3 ovarian
  TGI: > 100 µM
SNB-78 CNS
  TGI: > 100 µM
TK-10 renal
  TGI: > 100 µM
UACC-62 melanoma
  TGI: > 100 µM

## CCOc1ccc2c(c1)[n+]([O-])c(S(=O)(=O)c1ccc(C)cc1)c(N)[n+]2[O-]
DMS 114 small cell lung
  TGI: > 100 µM
NCI-H460 lung
  TGI: > 100 µM
OVCAR-3 ovarian
  TGI: > 100 µM
SNB-78 CNS
  TGI: > 100 µM
TK-10 renal
  TGI: > 100 µM
UACC-62 melanoma
  TGI: > 100 µM

## CCCCCCCCCC[C@@H](O)[C@@H]1CC[C@H]([C@H]2CC[C@@H]([C@@H](O)CCCCCCCCCC[C@H]3CC(CC(C)=O)C(=O)O3)O2)O1 (some centres undefined)
DMS 114 small cell lung
  TGI: 19 µM
LOX IMVI melanoma
  TGI: 36 µM
NCI-H460 lung
  TGI: > 100 µM
OVCAR-3 ovarian
  TGI: 17.8 µM
SNB-78 CNS
  TGI: 37.2 µM
TK-10 renal
  TGI: 32.8 µM
UACC-62 melanoma
  TGI: 32.2 µM

## COC(=O)C[C@H]1CCC2(OCCO2)[C@]1(C)C(=O)OC
DMS 114 small cell lung
  TGI: > 100 µM
LOX IMVI melanoma
  TGI: > 100 µM
NCI-H460 lung
  TGI: > 100 µM
OVCAR-3 ovarian
  TGI: > 100 µM
SNB-78 CNS
  TGI: > 100 µM
TK-10 renal
  TGI: > 100 µM
UACC-62 melanoma
  TGI: > 100 µM

## COc1cnc2cc(C(=O)O)c3c([N+](=O)[O-])cccc3c2c1
DU-145 prostate
  TGI: > 100 µM
LOX IMVI melanoma
  TGI: > 100 µM
MCF7 breast
  TGI: > 100 µM
NCI-H460 lung
  TGI: > 100 µM
OVCAR-3 ovarian
  TGI: > 100 µM
PC-3 prostate
  TGI: > 100 µM
TK-10 renal
  TGI: > 100 µM
UACC-62 melanoma
  TGI: > 100 µM

## C=C(CN1CCc2ccccc2C1)c1ccc(C(=O)Nc2cnccn2)cc1
DU-145 prostate
  GI50: 30.1 µM
  TGI: 89.7 µM
LOX IMVI melanoma
  GI50: 9.18 µM
  TGI: > 100 µM
MCF7 breast
  GI50: > 100 µM
  TGI: > 100 µM
NCI-H460 lung
  GI50: 36.3 µM
  TGI: > 100 µM
OVCAR-3 ovarian
  GI50: 22.1 µM
  TGI: 62.6 µM
PC-3 prostate
  GI50: 1.86 µM
  TGI: > 100 µM
TK-10 renal
  GI50: 86.3 µM
  TGI: > 100 µM
UACC-62 melanoma
  GI50: 44 µM
  TGI: > 100 µM

## O=c1oc2ccc(F)cc2c(=O)n1-c1ccc(F)cc1F
DU-145 prostate
  GI50: 4.18 µM
  TGI: > 100 µM
LOX IMVI melanoma
  GI50: 3.79 µM
  TGI: 22 µM
MCF7 breast
  GI50: 2.87 µM
  TGI: > 100 µM
NCI-H460 lung
  GI50: 3.42 µM
  TGI: 62.4 µM
OVCAR-3 ovarian
  GI50: 3.26 µM
  TGI: 27.7 µM
PC-3 prostate
  GI50: 2.81 µM
  TGI: 10.1 µM
TK-10 renal
  GI50: 5.07 µM
  TGI: 36.9 µM
UACC-62 melanoma
  GI50: 2.02 µM
  TGI: 7.52 µM
